Experimental data taken from ChEMBL document CHEMBL4359908, “Structure-activity relationship with pyrazoline-based aromatic sulfamates as carbonic anhydrase isoforms I, II, IX and XII inhibitors: Synthesis and biological evaluation” (Eur J Med Chem, 2019).

Columns and labels:
Carbonic anhydrase 2 = Carbonic anhydrase 2 (Homo sapiens, UniProt P00918); experiment: Inhibition of human carbonic anhydrase 2 assessed as inhibitory constant incubated for 15 mins by phenol red dye based stopped flow assay
Carbonic anhydrase 9 [1] = biological target: T1, Carbonic anhydrase 9 (Homo sapiens, UniProt Q16790); experiment: Inhibition of human carbonic anhydrase 9 assessed as inhibitory constant incubated for 15 mins by phenol red dye based stopped flow assay
Carbonic anhydrase 1 = Carbonic anhydrase 1 (Homo sapiens, UniProt P00915); experiment: Inhibition of human carbonic anhydrase 1 assessed as inhibitory constant incubated for 15 mins by phenol red dye based stopped flow assay
Carbonic anhydrase 12 [2] = biological target: T2, Carbonic anhydrase 12 (Homo sapiens, UniProt O43570); experiment: Inhibition of human carbonic anhydrase 12 assessed as inhibitory constant incubated for 15 mins by phenol red dye based stopped flow assay
Carbonic anhydrase 9 [3] = biological target: T1, Carbonic anhydrase 9; details: at 0.01 µM
Description: Inhibition of human carbonic anhydrase 9 assessed as reduction in CO2 hydration at 10^-8 M incubated for 15 mins by phenol red dye based stopped flow assay relative to control (Rvb = 0 %)

Carbonic anhydrase 12 [4] = biological target: T2, Carbonic anhydrase 12; details: at 0.001 µM
Carbonic anhydrase 9 [5] = biological target: T1, Carbonic anhydrase 9; details: at 0.001 µM
Description: Inhibition of human carbonic anhydrase 9 assessed as reduction in CO2 hydration at 10^-9 M incubated for 15 mins by phenol red dye based stopped flow assay relative to control (Rvb = 0 %)

Carbonic anhydrase 12 [6] = biological target: T2, Carbonic anhydrase 12; details: at 1 µM
Description: Inhibition of human carbonic anhydrase 12 assessed as reduction in CO2 hydration at 10^-6 M incubated for 15 mins by phenol red dye based stopped flow assay relative to control (Rvb = 0 %)

Carbonic anhydrase 12 [7] = biological target: T2, Carbonic anhydrase 12; details: at 0.1 µM
Description: Inhibition of human carbonic anhydrase 12 assessed as reduction in CO2 hydration at 10^-7 M incubated for 15 mins by phenol red dye based stopped flow assay relative to control (Rvb = 0 %)

Carbonic anhydrase 12 [8] = biological target: T2, Carbonic anhydrase 12; details: at 0.01 µM
Carbonic anhydrase 9 [9] = biological target: T1, Carbonic anhydrase 9; details: at 0.1 µM
Description: Inhibition of human carbonic anhydrase 9 assessed as reduction in CO2 hydration at 10^-7 M incubated for 15 mins by phenol red dye based stopped flow assay relative to control (Rvb = 0 %)

Carbonic anhydrase 9 [10] = biological target: T1, Carbonic anhydrase 9; details: at 1 µM
Description: Inhibition of human carbonic anhydrase 9 assessed as reduction in CO2 hydration at 10^-6 M incubated for 15 mins by phenol red dye based stopped flow assay relative to control (Rvb = 0 %)

T2 sequence (O43570 whole entry): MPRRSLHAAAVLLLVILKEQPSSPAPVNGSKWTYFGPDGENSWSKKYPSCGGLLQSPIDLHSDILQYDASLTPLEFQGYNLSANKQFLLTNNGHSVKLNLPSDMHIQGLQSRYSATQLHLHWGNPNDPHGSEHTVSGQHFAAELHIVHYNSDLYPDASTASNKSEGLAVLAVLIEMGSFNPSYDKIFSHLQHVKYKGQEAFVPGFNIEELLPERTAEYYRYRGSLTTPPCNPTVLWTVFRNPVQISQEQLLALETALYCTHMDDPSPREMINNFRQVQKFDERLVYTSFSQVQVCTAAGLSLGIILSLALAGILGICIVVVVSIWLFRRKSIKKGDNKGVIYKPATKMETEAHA
Chain of Carbonic anhydrase 1 (P00915 whole entry): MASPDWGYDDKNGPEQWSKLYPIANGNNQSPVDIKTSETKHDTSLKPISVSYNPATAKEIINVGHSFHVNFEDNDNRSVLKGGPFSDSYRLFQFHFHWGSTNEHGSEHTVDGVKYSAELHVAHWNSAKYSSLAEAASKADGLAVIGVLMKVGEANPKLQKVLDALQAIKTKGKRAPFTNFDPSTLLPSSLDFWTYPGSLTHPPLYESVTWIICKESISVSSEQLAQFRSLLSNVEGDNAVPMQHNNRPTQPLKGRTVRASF

Compound | Ki (Carbonic anhydrase 2) | Ki (Carbonic anhydrase 9 [1]) | Ki (Carbonic anhydrase 1) | Ki (Carbonic anhydrase 12 [2]) | also measured
CC(=O)N1N=C(c2cccc(OS(N)(=O)=O)c2)CC1c1cccc2ccccc12 (configuration not stated) | 216 nM | 51.1 nM | 2240 nM | 463 nM | –
CC(=O)N1N=C(c2ccc(OS(N)(=O)=O)cc2)CC1c1ccccc1Cl (configuration not stated) | 9 nM | 25.9 nM | 8250 nM | – | –
CC(=O)N1N=C(c2ccc(OS(N)(=O)=O)cc2)CC1c1ccc([N+](=O)[O-])cc1 (configuration not stated) | 1.2 nM | 74.3 nM | 3210 nM | – | –
CC(=O)N1N=C(c2ccc(OS(N)(=O)=O)cc2)CC1c1cc(Cl)ccc1Cl (configuration not stated) | 12.4 nM | 25.5 nM | 4750 nM | – | –
CC(=O)N1N=C(c2cccc(OS(N)(=O)=O)c2)CC1c1ccccc1Cl (configuration not stated) | 90.1 nM | 43.6 nM | 940 nM | 74.4 nM | –
CC(=O)N1N=C(c2ccc(Cl)cc2Cl)CC1c1ccc(OS(N)(=O)=O)cc1 (configuration not stated) | 5.3 nM | 49.9 nM | 3520 nM | 42 nM | –
CC(=O)N1N=C(c2ccc(Cl)cc2Cl)CC1c1cccc(OS(N)(=O)=O)c1 (configuration not stated) | 12 nM | 48.7 nM | 6940 nM | 30.8 nM | –
CC(=O)N1N=C(c2ccc(F)cc2)CC1c1cccc(OS(N)(=O)=O)c1 (configuration not stated) | 6.5 nM | 15.8 nM | 5230 nM | – | –
CC(=O)N1N=C(c2cccc(OS(N)(=O)=O)c2)CC1c1ccccc1 (configuration not stated) | 39.4 nM | 29.9 nM | 188 nM | 55.1 nM | –
CC(=O)N1N=C(c2ccccc2)CC1c1ccc(OS(N)(=O)=O)cc1 (configuration not stated) | 44.8 nM | 45.1 nM | 645 nM | 10.6 nM | inhibition (Carbonic anhydrase 9 [3]): 42%; inhibition (Carbonic anhydrase 12 [4]): 15%; inhibition (Carbonic anhydrase 9 [5]): 16%; inhibition (Carbonic anhydrase 12 [6]): 89%; inhibition (Carbonic anhydrase 12 [7]): 77%; inhibition (Carbonic anhydrase 12 [8]): 49%; inhibition (Carbonic anhydrase 9 [9]): 69%; inhibition (Carbonic anhydrase 9 [10]): 81%
CC(=O)N1N=C(c2cccc(OS(N)(=O)=O)c2)CC1c1cccc(Cl)c1 (configuration not stated) | 56.9 nM | 7.3 nM | 805 nM | 44.6 nM | –
COc1ccc(C2CC(c3ccc(OS(N)(=O)=O)cc3)=NN2C(C)=O)cc1 (configuration not stated) | 5.3 nM | 25 nM | 1610 nM | 42.6 nM | –
CC(=O)N1N=C(c2cccc(OS(N)(=O)=O)c2)CC1c1ccc(F)cc1 (configuration not stated) | 38 nM | 8.4 nM | 67.4 nM | 13.5 nM | –
CC(=O)N1N=C(c2ccc(OS(N)(=O)=O)cc2)CC1c1cccc2ccccc12 (configuration not stated) | 27.5 nM | 49 nM | 3300 nM | 56.4 nM | –
CC(=O)N1N=C(c2ccc([N+](=O)[O-])cc2)CC1c1cccc(OS(N)(=O)=O)c1 (configuration not stated) | 22.9 nM | 9.4 nM | 2550 nM | 20.5 nM | –
CC(=O)N1N=C(c2cccc(OS(N)(=O)=O)c2)CC1c1c(Cl)cccc1Cl (configuration not stated) | 223 nM | 63.6 nM | 1780 nM | 61.3 nM | –
CC(=O)N1N=C(c2ccc(OS(N)(=O)=O)cc2)CC1c1ccc(C(F)(F)F)cc1 (configuration not stated) | 0.83 nM | 29.3 nM | 2740 nM | – | –
CC(=O)N1N=C(c2ccc(Cl)c(Cl)c2)CC1c1ccc(OS(N)(=O)=O)cc1 (configuration not stated) | 27.6 nM | 7.7 nM | 2900 nM | 12.9 nM | –
CC(=O)N1N=C(c2cccc(OS(N)(=O)=O)c2)CC1c1ccc([N+](=O)[O-])cc1 (configuration not stated) | 134 nM | 10.1 nM | 1460 nM | 20.8 nM | –
CC(=O)N1N=C(c2ccccc2)CC1c1cccc(OS(N)(=O)=O)c1 (configuration not stated) | 16.5 nM | 13.1 nM | 755 nM | 22.9 nM | –

Compound | Ki (Carbonic anhydrase 2) | Ki (Carbonic anhydrase 9 [1]) | Ki (Carbonic anhydrase 1) | Ki (Carbonic anhydrase 12 [2]) | also measured
CC(=O)N1N=C(c2ccc(OS(N)(=O)=O)cc2)CC1c1ccc(C)cc1 (configuration not stated) | 6.5 nM | 7.1 nM | 817 nM | 22.3 nM | –
CC(=O)N1N=C(c2cccc(OS(N)(=O)=O)c2)CC1c1ccc(C(F)(F)F)cc1 (configuration not stated) | 22.2 nM | 3.7 nM | 952 nM | 8.9 nM | –
CC(=O)N1N=C(c2ccc(OS(N)(=O)=O)cc2)CC1c1cccc(Cl)c1 (configuration not stated) | 0.87 nM | 0.72 nM | 2310 nM | 9.8 nM | –
CC(=O)N1N=C(c2ccc(OS(N)(=O)=O)cc2)CC1c1c(Cl)cccc1Cl (configuration not stated) | 13.2 nM | 33.4 nM | 4080 nM | 43.7 nM | –
CC(=O)N1N=C(c2ccc(Cl)cc2)CC1c1ccc(OS(N)(=O)=O)cc1 (configuration not stated) | 19.5 nM | 8.3 nM | 970 nM | 29.5 nM | –
CC(=O)N1N=C(c2ccc(OS(N)(=O)=O)cc2)CC1c1ccc(F)cc1 (configuration not stated) | 1.5 nM | 5.9 nM | 666 nM | 11.8 nM | –
CC(=O)N1N=C(c2ccc(OS(N)(=O)=O)cc2)CC1c1ccc(Cl)cc1Cl (configuration not stated) | 9.3 nM | 11.2 nM | 3750 nM | 26.2 nM | –
CC(=O)N1N=C(c2cccc(OS(N)(=O)=O)c2)CC1c1ccc(Cl)cc1Cl (configuration not stated) | 195 nM | 13.8 nM | 1410 nM | 33.8 nM | –
CC(=O)N1N=C(c2ccc([N+](=O)[O-])cc2)CC1c1ccc(OS(N)(=O)=O)cc1 (configuration not stated) | 9.5 nM | 15 nM | 3820 nM | 0.88 nM | –
CC(=O)N1N=C(c2ccc(Cl)c(Cl)c2)CC1c1cccc(OS(N)(=O)=O)c1 (configuration not stated) | 54.8 nM | 15.5 nM | 8170 nM | 85.2 nM | –
CC(=O)N1N=C(c2ccc(OS(N)(=O)=O)cc2)CC1c1ccc(Cl)cc1 (configuration not stated) | 6 nM | 6.9 nM | 1140 nM | 27.3 nM | –
CC(=O)N1N=C(c2ccc(OS(N)(=O)=O)cc2)CC1c1ccccc1 (configuration not stated) | 8.9 nM | 34.1 nM | 1310 nM | – | –
CC(=O)N1N=C(c2ccc(C)cc2)CC1c1cccc(OS(N)(=O)=O)c1 (configuration not stated) | 25.4 nM | 8.9 nM | 1540 nM | 49.8 nM | –
COc1ccc(C2=NN(C(C)=O)C(c3ccc(OS(N)(=O)=O)cc3)C2)cc1 (configuration not stated) | 0.42 nM | 22.8 nM | 2980 nM | 9.5 nM | –
CC(=O)N1N=C(c2ccc(Cl)cc2)CC1c1cccc(OS(N)(=O)=O)c1 (configuration not stated) | 32.7 nM | 0.81 nM | 2140 nM | 22.3 nM | –
COc1ccc(C2CC(c3cccc(OS(N)(=O)=O)c3)=NN2C(C)=O)cc1 (configuration not stated) | 52.4 nM | 8.7 nM | 172 nM | 48.6 nM | –
CC(=O)N1N=C(c2ccc(C)cc2)CC1c1ccc(OS(N)(=O)=O)cc1 (configuration not stated) | 9.9 nM | 22.4 nM | 2340 nM | 7.7 nM | –
CC(=O)N1N=C(c2cccc(OS(N)(=O)=O)c2)CC1c1ccc(Cl)cc1 (configuration not stated) | 14.7 nM | 6.9 nM | 438 nM | 9.3 nM | –
CC(=O)N1N=C(c2cccc(OS(N)(=O)=O)c2)CC1c1cc(Cl)ccc1Cl (configuration not stated) | 92.6 nM | 58.9 nM | 2040 nM | 34.2 nM | –
CC(=O)N1N=C(c2cccc(OS(N)(=O)=O)c2)CC1c1ccc(C)cc1 (configuration not stated) | 71.2 nM | 29.4 nM | 558 nM | 55.9 nM | –
